Key:
[1] = biological target: Galanin receptor type 1 (Homo sapiens) (UniProt P47211); experiment: Displacement of [125I]galanin from human recombinant GAL1 receptor expressed in HEK293 cells at 10 uM after 60 mins by scintillation counting; assay type: cell-based
[2] = organism: Rattus norvegicus; experiment: Displacement of [3H]TCP from PCP receptor in rat cerebral cortex at 10 uM after 120 mins by scintillation counting; assay type: tissue-based
[3] = organism: Rattus norvegicus; experiment: Displacement of [3H]DTG from sigma opioid receptor in rat cerebral cortex at 10 uM after 120 mins by scintillation counting; assay type: tissue-based
[4] = biological target: D(1A) dopamine receptor (Homo sapiens) (UniProt P21728); experiment: Displacement of [3H]SCH 23390 from human recombinant dopamine D1 receptor expressed in CHO cells at 10 uM after 60 mins by scintillation counting; assay type: cell-based
[5] = system: CHO; experiment: Displacement of [3H]DADLE from human recombinant delta2 opioid receptor expressed in CHO cells at 10 uM after 120 mins by scintillation counting; assay type: cell-based
[6] = biological target: Sodium-dependent dopamine transporter (Homo sapiens) (UniProt Q01959); experiment: Displacement of [3H]BTCP from human recombinant DAT expressed in CHO cells at 10 uM after 120 mins by scintillation counting; assay type: cell-based
[7] = biological target: B2 bradykinin receptor (Homo sapiens) (UniProt P30411); experiment: Displacement of [3H]bradykinin from human recombinant bradykinin B2 receptor expressed in CHO cells at 10 uM after 60 mins by scintillation counting; assay type: cell-based
[8] = organism: Rattus norvegicus; experiment: Displacement of [35S]TBPS from GABA gated chloride channel in rat cerebral cortex at 10 uM after 120 mins by scintillation counting; assay type: tissue-based
[9] = biological target: Adenosine receptor A3 (Homo sapiens) (UniProt P0DMS8); experiment: Displacement of [125I]AB-MECA from human recombinant A3 receptor expressed in HEK293 cells at 10 uM after 120 mins by scintillation counting; assay type: cell-based
[10] = biological target: C-X-C chemokine receptor type 2 (Homo sapiens) (UniProt P25025); experiment: Displacement of [125I]IL-8 from human recombinant CXCR2 receptor expressed in HEK293 cells at 10 uM after 60 mins by scintillation counting; assay type: cell-based
[11] = Oral bioavailability in rat; assay type: ADME, organism-based; conditions: in vivo
[12] = biological target: Neuropeptide Y receptor type 2 (Homo sapiens) (UniProt P49146); experiment: Displacement of [125I]peptideYY from neuropeptide Y2 receptor in human KAN-TS cells at 10 uM after 60 mins by scintillation counting; assay type: cell-based
[13] = biological target: Muscarinic acetylcholine receptor M4 (Homo sapiens) (UniProt P08173); experiment: Displacement of [3H]4-DAMP from human recombinant muscarinic M4 receptor expressed in CHO cells at 10 uM after 60 mins by scintillation counting; assay type: cell-based
[14] = biological target: Nociceptin receptor (Homo sapiens) (UniProt P41146); experiment: Displacement of [3H]nociceptin from human recombinant NOP receptor expressed in HEK293 cells at 10 uM after 60 mins by scintillation counting; assay type: cell-based
[15] = biological target: Galanin receptor type 2 (Homo sapiens) (UniProt O43603); experiment: Displacement of [125I]galanin from human recombinant GAL2 receptor expressed in HEK293 cells at 10 uM after 120 mins by scintillation counting; assay type: cell-based
[16] = biological target: 5-hydroxytryptamine receptor 1A (Homo sapiens) (UniProt P08908); experiment: Displacement of [3H]8-OH-DPAT from human recombinant 5HT1A receptor expressed in HEK293 cells at 10 uM after 60 mins by scintillation counting; assay type: cell-based
[17] = biological target: D(3) dopamine receptor (Homo sapiens) (UniProt P35462); experiment: Displacement of [3H]methyl-spiperone from human recombinant dopamine D3 receptor expressed in CHO cells at 10 uM after 60 mins by scintillation counting; assay type: cell-based
[18] = biological target: Histamine H2 receptor (Homo sapiens) (UniProt P25021); experiment: Displacement of [125I]APT from human recombinant histamine H2 receptor expressed in CHO cells at 10 uM after 120 mins by scintillation counting; assay type: cell-based
[19] = biological target: Muscarinic acetylcholine receptor M2 (Homo sapiens) (UniProt P08172); experiment: Displacement of [3H]AF-DX 384 from human recombinant muscarinic M2 receptor expressed in CHO cells at 10 uM after 60 mins by scintillation counting; assay type: cell-based
[20] = biological target: 5-hydroxytryptamine receptor 2C (Homo sapiens) (UniProt P28335); experiment: Displacement of [3H]mesulergine from human recombinant 5HT2C receptor expressed in HEK293 cells at 10 uM after 120 mins by scintillation counting; assay type: cell-based
[21] = biological target: D(2) dopamine receptor (Homo sapiens) (UniProt P14416); experiment: Displacement of [3H]methyl-spiperone from human recombinant D2S receptor expressed in HEK293 cells at 10 uM after 60 mins by scintillation counting; assay type: cell-based
[22] = biological target: P2X purinoceptor 4 (Homo sapiens, UniProt Q99571); experiment: Antagonist activity at P2X4 receptor; assay type: functional
[23] = Metabolic stability in human liver microsomes; assay type: ADME, Microsome; conditions: read-out: Stability
[24] = biological target: Pituitary adenylate cyclase-activating polypeptide type I receptor (Homo sapiens) (UniProt P41586); experiment: Displacement of [125I]PACAP1-27 from human recombinant PAC1 receptor expressed in CHO cells at 10 uM after 120 mins by scintillation counting; assay type: cell-based
[25] = biological target: P2X purinoceptor 1 (Homo sapiens, UniProt P51575); experiment: Antagonist activity at P2X1 receptor; assay type: functional
[26] = biological target: P2X purinoceptor 7 (Homo sapiens, UniProt Q99572); experiment: Antagonist activity at P2X7 receptor; assay type: functional
[27] = biological target: Glucocorticoid receptor (Homo sapiens) (UniProt P04150); experiment: Displacement of [3H]dexamethasone from glucocorticoid receptor in human IM9 cells at 10 uM after 6 hrs by scintillation counting; assay type: cell-based; conditions: IM-9
[28] = biological target: C-C chemokine receptor type 1 (Homo sapiens) (UniProt P32246); experiment: Displacement of [125I]MIP-1a from human recombinant CCR1 receptor expressed in HEK293 cells at 10 uM after 120 mins by scintillation counting; assay type: cell-based
[29] = biological target: Gastrin/cholecystokinin type B receptor (Homo sapiens) (UniProt P32239); experiment: Displacement of [125I]CCK-8s from human recombinant CCK2 receptor expressed in CHO cells at 10 uM after 60 mins by scintillation counting; assay type: cell-based
[30] = biological target: Prostacyclin receptor (Homo sapiens) (UniProt P43119); experiment: Displacement of [3H]iloprost from human recombinant IP receptor expressed in HEK293 cells at 10 uM after 60 mins by scintillation counting; assay type: cell-based
[31] = biological target: Neurotensin receptor type 1 (Homo sapiens) (UniProt P30989); experiment: Displacement of [125I]Tyr3-neurotensin from human recombinant NTS1 receptor expressed in CHO cells at 10 uM after 60 mins by scintillation counting; assay type: cell-based
[32] = biological target: Kappa-type opioid receptor (Rattus norvegicus) (UniProt P34975); experiment: Displacement of [3H]U 69593 from rat recombinant kappa opioid receptor expressed in CHO cells at 10 uM after 60 mins by scintillation counting; assay type: cell-based
[33] = system: Hepatocyte; experiment: Metabolic stability in rat hepatocytes; assay type: ADME, cell-based
[34] = biological target: Adrenergic receptor alpha-2 (Rattus norvegicus) (UniProt P22086+P19328+P22909); experiment: Displacement of [3H]RX 821002 from alpha2 receptor in rat cerebral cortex at 10 uM after 60 mins by scintillation counting; assay type: tissue-based

Sequence of C-X-C chemokine receptor type 2 (Homo sapiens) (P25025 whole entry): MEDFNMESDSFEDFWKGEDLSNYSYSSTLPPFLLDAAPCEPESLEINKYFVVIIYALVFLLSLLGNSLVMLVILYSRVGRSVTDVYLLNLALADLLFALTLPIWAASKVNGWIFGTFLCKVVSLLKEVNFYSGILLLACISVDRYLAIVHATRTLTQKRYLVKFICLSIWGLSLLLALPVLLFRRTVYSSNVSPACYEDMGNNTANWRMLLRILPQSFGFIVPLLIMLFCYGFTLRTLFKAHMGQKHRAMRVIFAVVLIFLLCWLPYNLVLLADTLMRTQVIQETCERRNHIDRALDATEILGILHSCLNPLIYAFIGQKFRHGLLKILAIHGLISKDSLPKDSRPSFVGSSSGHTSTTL
Sequence of Glucocorticoid receptor (Homo sapiens) (P04150 whole entry): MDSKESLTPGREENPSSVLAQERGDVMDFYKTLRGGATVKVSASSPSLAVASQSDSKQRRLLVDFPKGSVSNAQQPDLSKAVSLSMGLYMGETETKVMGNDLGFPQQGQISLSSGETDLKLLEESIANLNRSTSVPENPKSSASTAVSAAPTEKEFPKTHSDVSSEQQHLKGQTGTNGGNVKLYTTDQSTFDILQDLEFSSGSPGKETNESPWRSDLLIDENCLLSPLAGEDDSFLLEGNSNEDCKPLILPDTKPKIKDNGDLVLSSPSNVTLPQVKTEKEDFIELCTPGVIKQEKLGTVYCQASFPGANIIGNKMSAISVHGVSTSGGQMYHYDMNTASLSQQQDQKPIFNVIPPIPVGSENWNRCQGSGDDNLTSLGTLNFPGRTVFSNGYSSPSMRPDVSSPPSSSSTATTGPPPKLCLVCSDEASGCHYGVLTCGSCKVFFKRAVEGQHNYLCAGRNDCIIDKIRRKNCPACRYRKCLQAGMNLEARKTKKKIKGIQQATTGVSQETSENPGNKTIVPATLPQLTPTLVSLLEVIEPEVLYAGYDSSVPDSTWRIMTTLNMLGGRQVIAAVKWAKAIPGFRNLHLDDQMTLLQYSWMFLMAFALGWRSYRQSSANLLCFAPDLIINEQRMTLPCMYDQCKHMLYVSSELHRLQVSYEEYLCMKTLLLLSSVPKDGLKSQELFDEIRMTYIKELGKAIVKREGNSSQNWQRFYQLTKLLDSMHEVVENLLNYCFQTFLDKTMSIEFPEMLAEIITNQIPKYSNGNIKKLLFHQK
Sequence of Histamine H2 receptor (Homo sapiens) (P25021 whole entry): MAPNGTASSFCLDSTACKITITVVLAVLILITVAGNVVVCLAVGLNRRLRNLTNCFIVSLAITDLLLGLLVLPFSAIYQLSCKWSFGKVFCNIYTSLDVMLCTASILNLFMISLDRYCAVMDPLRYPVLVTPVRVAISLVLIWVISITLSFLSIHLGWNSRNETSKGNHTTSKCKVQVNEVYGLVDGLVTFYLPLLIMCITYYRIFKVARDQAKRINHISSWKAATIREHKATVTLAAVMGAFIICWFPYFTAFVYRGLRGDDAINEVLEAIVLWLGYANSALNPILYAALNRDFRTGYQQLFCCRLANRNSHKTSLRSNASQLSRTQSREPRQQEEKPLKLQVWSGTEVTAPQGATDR
Sequence of Muscarinic acetylcholine receptor M2 (Homo sapiens) (P08172 whole entry): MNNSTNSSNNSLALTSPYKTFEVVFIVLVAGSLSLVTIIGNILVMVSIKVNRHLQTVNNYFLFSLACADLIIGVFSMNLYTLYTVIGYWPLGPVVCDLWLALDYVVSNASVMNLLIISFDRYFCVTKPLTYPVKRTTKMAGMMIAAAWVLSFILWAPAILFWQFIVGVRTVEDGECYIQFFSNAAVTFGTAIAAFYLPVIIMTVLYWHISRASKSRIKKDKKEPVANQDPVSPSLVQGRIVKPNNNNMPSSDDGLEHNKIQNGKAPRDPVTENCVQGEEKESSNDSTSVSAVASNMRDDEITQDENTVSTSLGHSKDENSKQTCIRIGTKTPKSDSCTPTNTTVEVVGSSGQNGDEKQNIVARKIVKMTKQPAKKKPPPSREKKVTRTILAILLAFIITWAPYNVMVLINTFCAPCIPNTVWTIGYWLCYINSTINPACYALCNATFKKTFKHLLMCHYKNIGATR
Sequence of 5-hydroxytryptamine receptor 1A (Homo sapiens) (P08908 whole entry): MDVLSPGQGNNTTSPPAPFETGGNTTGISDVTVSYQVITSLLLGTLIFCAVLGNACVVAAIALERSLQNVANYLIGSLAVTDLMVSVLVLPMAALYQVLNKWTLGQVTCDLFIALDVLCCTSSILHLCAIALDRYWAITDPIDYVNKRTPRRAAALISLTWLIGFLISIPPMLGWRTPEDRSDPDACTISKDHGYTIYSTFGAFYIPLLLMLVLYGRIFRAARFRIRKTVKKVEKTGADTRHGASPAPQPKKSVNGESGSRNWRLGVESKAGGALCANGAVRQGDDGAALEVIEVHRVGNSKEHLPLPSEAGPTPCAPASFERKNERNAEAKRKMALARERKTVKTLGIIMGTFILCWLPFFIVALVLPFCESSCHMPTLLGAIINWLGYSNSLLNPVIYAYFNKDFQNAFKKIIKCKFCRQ
Sequence of P2X purinoceptor 4 (Q99571 whole entry): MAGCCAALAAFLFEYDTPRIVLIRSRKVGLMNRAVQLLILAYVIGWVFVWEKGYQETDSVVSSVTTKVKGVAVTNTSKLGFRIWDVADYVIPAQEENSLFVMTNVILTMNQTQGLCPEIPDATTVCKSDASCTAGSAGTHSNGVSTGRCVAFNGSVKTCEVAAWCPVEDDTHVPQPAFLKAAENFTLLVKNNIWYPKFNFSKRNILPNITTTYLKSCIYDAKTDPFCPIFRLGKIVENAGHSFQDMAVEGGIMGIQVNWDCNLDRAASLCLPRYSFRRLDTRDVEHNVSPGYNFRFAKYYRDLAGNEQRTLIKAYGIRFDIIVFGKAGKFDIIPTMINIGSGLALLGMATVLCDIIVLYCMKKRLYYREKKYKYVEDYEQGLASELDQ
Sequence of C-C chemokine receptor type 1 (Homo sapiens) (P32246 whole entry): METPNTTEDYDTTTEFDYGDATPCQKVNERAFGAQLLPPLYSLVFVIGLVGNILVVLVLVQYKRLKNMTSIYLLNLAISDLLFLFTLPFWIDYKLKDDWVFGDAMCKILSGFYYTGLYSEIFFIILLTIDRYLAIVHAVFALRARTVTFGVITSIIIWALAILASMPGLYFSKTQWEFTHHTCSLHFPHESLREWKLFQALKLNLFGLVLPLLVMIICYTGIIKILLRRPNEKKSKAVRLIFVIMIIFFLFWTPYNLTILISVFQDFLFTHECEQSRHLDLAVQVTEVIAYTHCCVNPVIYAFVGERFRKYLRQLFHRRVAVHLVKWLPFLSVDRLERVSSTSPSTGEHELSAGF
Sequence of 5-hydroxytryptamine receptor 2C (Homo sapiens) (P28335 whole entry): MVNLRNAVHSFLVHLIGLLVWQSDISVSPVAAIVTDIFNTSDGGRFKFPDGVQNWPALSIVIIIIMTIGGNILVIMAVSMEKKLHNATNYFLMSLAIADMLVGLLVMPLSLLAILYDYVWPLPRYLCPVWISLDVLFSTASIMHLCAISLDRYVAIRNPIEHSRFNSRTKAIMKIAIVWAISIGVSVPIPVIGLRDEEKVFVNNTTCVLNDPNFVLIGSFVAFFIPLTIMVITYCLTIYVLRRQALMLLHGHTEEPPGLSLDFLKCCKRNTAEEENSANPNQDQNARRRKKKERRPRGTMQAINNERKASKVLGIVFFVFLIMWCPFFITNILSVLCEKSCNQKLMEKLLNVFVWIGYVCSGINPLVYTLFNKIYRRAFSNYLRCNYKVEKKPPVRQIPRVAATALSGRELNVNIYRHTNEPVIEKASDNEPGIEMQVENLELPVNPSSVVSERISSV
Sequence of Sodium-dependent dopamine transporter (Homo sapiens) (Q01959 whole entry): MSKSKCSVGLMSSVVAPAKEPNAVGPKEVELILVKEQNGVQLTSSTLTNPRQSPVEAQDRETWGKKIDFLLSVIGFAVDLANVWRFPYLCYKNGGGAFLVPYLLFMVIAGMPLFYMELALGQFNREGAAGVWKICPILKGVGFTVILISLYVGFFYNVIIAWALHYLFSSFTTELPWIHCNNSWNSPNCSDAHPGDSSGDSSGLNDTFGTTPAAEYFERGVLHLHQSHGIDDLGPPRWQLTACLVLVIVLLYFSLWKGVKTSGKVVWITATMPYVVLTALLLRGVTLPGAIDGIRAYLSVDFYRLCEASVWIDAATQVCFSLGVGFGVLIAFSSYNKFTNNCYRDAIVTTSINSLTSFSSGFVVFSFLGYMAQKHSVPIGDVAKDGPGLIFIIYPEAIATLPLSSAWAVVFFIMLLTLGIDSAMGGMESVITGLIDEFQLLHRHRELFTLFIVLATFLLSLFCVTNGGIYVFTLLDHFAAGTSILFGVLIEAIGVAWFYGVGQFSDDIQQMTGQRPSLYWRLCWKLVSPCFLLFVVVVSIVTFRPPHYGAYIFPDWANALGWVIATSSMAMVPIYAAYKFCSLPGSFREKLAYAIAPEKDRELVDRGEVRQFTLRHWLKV
Sequence of D(3) dopamine receptor (Homo sapiens) (P35462 whole entry): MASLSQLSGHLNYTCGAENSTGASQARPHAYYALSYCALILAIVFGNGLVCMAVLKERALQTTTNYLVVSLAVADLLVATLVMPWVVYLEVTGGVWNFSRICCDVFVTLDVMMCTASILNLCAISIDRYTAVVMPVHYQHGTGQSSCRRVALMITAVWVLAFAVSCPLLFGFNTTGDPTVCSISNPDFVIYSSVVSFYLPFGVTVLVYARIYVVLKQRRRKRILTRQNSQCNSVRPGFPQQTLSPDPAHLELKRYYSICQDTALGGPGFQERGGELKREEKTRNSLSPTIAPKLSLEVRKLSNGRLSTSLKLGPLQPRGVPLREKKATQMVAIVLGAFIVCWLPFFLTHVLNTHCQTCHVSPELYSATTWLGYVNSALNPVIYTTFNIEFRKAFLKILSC
Sequence of Galanin receptor type 1 (Homo sapiens) (P47211 whole entry): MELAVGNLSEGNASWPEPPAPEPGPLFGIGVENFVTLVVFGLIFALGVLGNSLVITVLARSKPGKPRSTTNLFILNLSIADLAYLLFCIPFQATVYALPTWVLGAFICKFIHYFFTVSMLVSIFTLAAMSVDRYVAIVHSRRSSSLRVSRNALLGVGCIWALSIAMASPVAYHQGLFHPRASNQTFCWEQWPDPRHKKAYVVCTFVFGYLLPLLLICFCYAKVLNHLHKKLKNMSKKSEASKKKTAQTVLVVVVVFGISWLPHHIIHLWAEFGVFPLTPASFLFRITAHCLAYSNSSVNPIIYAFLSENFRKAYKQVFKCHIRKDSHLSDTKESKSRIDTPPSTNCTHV

SMILES: CC(=O)N1CCN(C[C@@H](C)NC(=O)c2cc3c(-c4ccccc4)nn(C)c3s2)CC1
- Activity [1]: > 50%
- Activity [2]: > 50%
- Activity [3]: > 50%
- Activity [4]: > 50%
- Activity [5]: > 50%
- Activity [6]: > 50%
- Activity [7]: > 50%
- Activity [8]: > 50%
- Activity [9]: > 50%
- Activity [10]: > 50%
- bioavailability [11]: 89%
- Activity [12]: > 50%
- Activity [13]: > 50%
- Activity [14]: > 50%
- Activity [15]: > 50%
- Activity [16]: > 50%
- Activity [17]: > 50%
- Activity [18]: > 50%
- Activity [19]: > 50%
- Activity [20]: > 50%
- Activity [21]: > 50%
- IC50 [22]: > 10 µM
- microsomal CLint [23]: 1.7 µL/min/mg
- Activity [24]: > 50%
- IC50 [25]: > 10 µM
- IC50 [26]: > 10 µM
- Activity [27]: > 50%
- Activity [28]: > 50%
- Activity [29]: > 50%
- Activity [30]: > 50%
- Activity [31]: > 50%
- Activity [32]: > 50%
- Stability [33]: 3.93 µL/min/mg
- Activity [34]: > 50%

— ChEMBL document CHEMBL1159093, “Discovery and optimization of RO-85, a novel drug-like, potent, and selective P2X3 receptor antagonist” (Bioorg Med Chem Lett, 2010)
